This series has as its system colitis induced by trinitrobenzene sulfonic acid (TNBS). Description: in vivo test: TNBS-induced colitis in rats, intracolonic treatment. The settings on record: for Colon weight: 10 cm distal colon; for Colon weight / Macroscopic score / Necrosis areas (Mucosal Damage Area, MDA): day 4; for Body weight variation / Final body weight: days 1-3, day 4; for Macroscopic score / Necrosis areas (Mucosal Damage Area, MDA): distal colon. The method, then: 70 Wister male rats were kept fasted for 20 hours before the induction of colitis. In the morning of the experiment (day 0), the rats were injected with a 40% solution of ethanol containing 30 mg of trinitrobenzene sulfonic acid (TNBS) by means of a single intracolonic injection. On days 1, 2 and 3 after the induction of colitis, Dalteparin sodium suspended in 0.25 mL of a 1% sodium cholate in saline (0.3 mg/rat, 0.6 mg/rat and 0.9 mg/rat), or 0.25 mL of vehicle (1% sodium cholate in saline) were instilled intracolonically. An additional group constituted by 4 untreated rats was also included. On day 4 from the induction of colitis, animals were euthanized and autopsy was performed. The colon have been isolated and 10 cm of the distal portion have been resected and weighted. […] The results, summarized in the table below, have been compared with those obtained from the control animals.

Where [1] appears, read: 0.6 mg/rat/die intracolonic, listed as dalteparin sodium.

The results in this text go back to US20140127292A1, “PHARMACEUTICAL COMPOSITIONS FOR THE ORAL ADMINISTRATION OF HEPARIN OR DERIVATIVES THEREOF” (Cosmo Technologies Limited, priority 2001, published 2014).

In turn, Dalteparin sodium had a Mortality (0.3 mg/rat/die intracolonic) of 0%, a Mortality (0.6 mg/rat/die intracolonic) of 10% and a Mortality (0.9 mg/rat/die intracolonic) of 10%. The Colon weight amounted to 1.72 ± 0.30 g (0.3 mg/rat/die intracolonic); 1.72 ± 0.30 g (0.3 mg/rat/die intracolonic, listed as dalteparin sodium); 1.80 ± 0.38 g (0.6 mg/rat/die intracolonic); 1.76 ± 0.22 g (0.9 mg/rat/die intracolonic); 1.76 ± 0.22 g (0.9 mg/rat/die intracolonic, listed as dalteparin sodium). Besides, the Body weight variation (0.3 mg/rat/die intracolonic) is given as −21%, the Body weight variation (0.6 mg/rat/die intracolonic) is listed as −15% and the Body weight variation (0.9 mg/rat/die intracolonic) is given as −17%. Also, the Final body weight runs as follows: (0.3 mg/rat/die intracolonic) 166 ± 14 g; (0.6 mg/rat/die intracolonic) 180 ± 17 g; (0.9 mg/rat/die intracolonic) 176 ± 15 g. Also, the Macroscopic score runs as follows: (0.3 mg/rat/die intracolonic) 5.6 ± 0.52; (0.6 mg/rat/die intracolonic) 4.9 ± 1.05; under setting [1], 4.9±1.05; (0.9 mg/rat/die intracolonic) 5.8 ± 0.44. Further, the “Necrosis areas (Mucosal Damage Area, MDA)” value runs as follows: (0.3 mg/rat/die intracolonic) 463.4 ± 89.6 mm^2; (0.6 mg/rat/die intracolonic) 309.9 ± 155.8 mm^2; under setting [1], 309.9±155.8 mm^2; (0.9 mg/rat/die intracolonic) 492.5 ± 104.6 mm^2. For the same substance, the “overall effect of treatment on the considered parameters” value (0.3, 0.6 and 0.9 mg/rat intracolonic, versus vehicle control group) is reported as “effective in reducing all the considered parameters”.
